One data set concerns yeast. As to conditions: Cooper et al. 1984; cited from earlier work.
A further data set relates to insulin. The following applies: in vitro; cited from earlier work.
Data set [1] concerns Obese Zucker rats. Kind of data set: In vivo assessment in obese Zucker rats: body weight and food intake. As to conditions: obese Zucker rats, daily 400 μg Cr(III)/kg, mean; for Food Intake 5 wks: at 5 weeks; for Food Intake 7 wks: at 7 weeks.
For data set [2], the system named is Obese Zucker rats. Kind of data set: In vivo assessment in obese Zucker rats: clinical chemistry (AP, BUN, CRT, AST, ALT). As to conditions: obese Zucker rats; mean ± SE.
Data set [3] relates to Obese Zucker rats. Nature of the data set: In vivo assessment in obese Zucker rats: blood lipid profile (total cholesterol, triglycerides, HDL). As to conditions: daily 400 μg Cr(III)/kg, 8 weeks, mean.
For data set [4], the system named is Obese Zucker rats. Nature of the data set: In vivo assessment in obese Zucker rats: other vascular inflammation markers (cAMP, TNFα, IL-6, OxyDNA). The following applies: obese Zucker rats, daily 400 μg Cr(III)/kg, 8 weeks, mean ± SE; for OxyDNA: oxidative DNA damage.
Data set [5] relates to Obese Zucker rats. Kind of data set: In vivo assessment in obese Zucker rats: vascular inflammation markers (MCP-1, CRP, RBP-4, leptin, ICAM, adiponectin). The following applies: obese Zucker rats, daily 400 μg Cr(III)/kg, 8 weeks, mean; for Adiponectin / CRP / ICAM / MCP-1: plasma, ELISA.
The subject of data set [6] is Obese Zucker rats. Nature of the data set: In vivo assessment in obese Zucker rats: key biological parameters (fasting glucose, HbA1c, vitamin C, GSH, RBC lipid peroxidation). As to conditions: obese Zucker rats, daily 400 μg Cr(III)/kg, 8 weeks, mean; for RBC Lipid Peroxidase: malondialdehyde by thiobarbituric acid; for Fasting Glucose: fasted overnight; for Vitamin C: plasma.

For data set [7] the following is noted: cited from earlier work; for chromium absorbed (average): men and women.
For data set [8] the following is noted: typical; cited from earlier work.
Data set [9] has as its system Obese Zucker rats. The following applies: rat, in vivo.

Like-named read-outs stand apart in the source and are kept apart here.

On to `NC(C[S-])C(=O)[O-].NC(C[S-])C(=O)[O-].[Cr+3]` (stereo not shown) [Cr(cysteine)2^−], for which, in the data set on yeast, the “glucose tolerance factor activity in yeast assay” value (from here on “glucose tolerance factor activity”) is listed as “not active”.
Take `NC(=O)CCC(N)C(=O)[O-].NC(=O)CCC(N)C(=O)[O-].O.O.[Cr+3]` (stereo not shown) [Cr(glutamine)2(H2O)2^+]: the “glucose tolerance factor activity” value with yeast was “significant activity”.
In the case of `O=C(O)c1cccnc1` [Niacin, reference compound], the “potentiation of the action of insulin” value in the data set with insulin is recorded as “virtually no effect”. In the data set on Obese Zucker rats [1], the “Food Intake 5 wks” value amounted to 37.92 g/day and the “Food Intake 7 wks” value is 39.67 g/day. For the same compound, in the data set on Obese Zucker rats [2], the “ALT (Alanine Aminotransferease)” value worked out at 126.17 u/L, the “BUN (Blood Urea Nitrogen)” value was 19.33 mg/dL and the “CRT (Creatinine)” value is reported as 0.40 mg/dL. Also, in the data set on Obese Zucker rats [3], the HDL was 70.33 mg/dL, the “Total Cholesterol” value is on record as 192.17 mg/dL and the Triglyceride came out at 486.67 mg/dL. Also, in the data set on Obese Zucker rats [4], the IL-6 is listed as 93.76 ± 1.60 pg/mL, the cAMP is given as 34.27 ± 1.47 pmol/mL and the OxyDNA is reported as 47.31 ± 2.78 ng/mL. In addition, in the data set on Obese Zucker rats [5], the Leptin is recorded as 363.96 pg/mL, the RBP-4 was 53945.00 ng/mL, the Adiponectin is on record as 8872.00 ng/mL and the CRP is recorded as 548.27 ng/mL. In the data set on Obese Zucker rats [5], this compound returned an ICAM of 16855.83 pg/mL and an MCP-1 of 1365.66 pg/mL. Further, in the data set with Obese Zucker rats [6], the “RBC Lipid Peroxidase” value is on record as 1.82 nmol/mL, the “Fasting Glucose” value is 543.00 mg/dL, the GSH stood at 5.32 µmol/g and the HbA1c was found to be 15.60%. For the same compound, the “Vitamin C” value in the data set with Obese Zucker rats [6] stood at 0.15 mg %.
With `[Cl][Cr]([Cl])[Cl]` [chromium chloride], the “chromium absorbed (average)” value in data set [7] was 0.4 µg. For the same compound, in [8], the “absorbed by the body” value is “less than one”.
In the case of “Chromium Histidinate [CrHis, reference compound]”, in [7], the “chromium absorbed (average)” value is 3.1 µg. Also, the “absorbed better than chromium picolinate” value in [7] (relative to chromium picolinate) is “at least 50%”. In addition, in the data set on Obese Zucker rats [2], the “ALT (Alanine Aminotransferease)” value is 168.25 u/L, the “AP (Alkaline phosphatase)” value stood at 35.25 u/L, the “AST (Aspartate Aminotransferase)” value is reported as 248.00 u/L and the “Anion Gap” value turned out to be 29.75. Further, in the data set with Obese Zucker rats [2], the “BUN (Blood Urea Nitrogen)” value worked out at 19.50 mg/dL, the “BUN/CRT Ratio” value stood at 48.75, the “CRT (Creatinine)” value amounted to 0.40 mg/dL and the “Total Bilirubin” value worked out at 0.10 mg/dL. For the same compound, in the data set with Obese Zucker rats [3], the HDL is reported as 66.90 mg/dL, the “Total Chol/HDL” value came to 2.86 ratio, the “Total Cholesterol” value was found to be 189.62 mg/dL and the Triglyceride is given as 503.93 mg/dL. In the data set on Obese Zucker rats [4], this compound displayed an IL-6 of 91.98 ± 8.19 pg/mL, a TNFα of 24.72 ± 5.24 pg/mL, a cAMP of 28.07 ± 2.83 pmol/mL and an OxyDNA of 57.72 ± 2.86 ng/mL. Moreover, in the data set with Obese Zucker rats [5], the Leptin amounted to 436.96 pg/mL, the RBP-4 was determined as 51112.60 ng/mL, the Adiponectin worked out at 11455.87 ng/mL and the CRP came to 710.26 ng/mL. The MCP-1 with Obese Zucker rats [5] worked out at 2974.79 pg/mL. In addition, in the data set with Obese Zucker rats [6], the “RBC Lipid Peroxidase” value is given as 1.91 nmol/mL, the “Fasting Glucose” value came out at 592.01 mg/dL, the GSH is 4.68 µmol/g and the HbA1c was 15.89%.
As to “Chromium Picolinate [CrP, reference compound]”, in the data set with Obese Zucker rats [9], the “ALT (Alanine Aminotransferease)” value worked out at 179.78 u/L, the “AP (Alkaline phosphatase)” value was 40.06 u/L, the “AST (Aspartate Aminotransferase)” value was 362.44 u/L and the “Anion Gap” value came out at 29.61. In the data set on Obese Zucker rats [9], the “BUN (Blood Urea Nitrogen)” value is given as 20.22 mg/dL, the “BUN/CRT Ratio” value came to 49.72, the “CRT (Creatinine)” value is recorded as 0.41 mg/dL and the “Total Bilirubin” value is 0.07 mg/dL. Further, the “chromium absorbed (average)” value in [7] is 1.8 µg. Also, in the data set with Obese Zucker rats [1], the “Food Intake 5 wks” value stood at 35.85 g/day and the “Food Intake 7 wks” value is listed as 40.79 g/day. In the data set with Obese Zucker rats [3], the HDL was determined as 66.01 mg/dL, the “Total Chol/HDL” value was 3.02 ratio, the “Total Cholesterol” value is on record as 191.80 mg/dL and the Triglyceride turned out to be 625.35 mg/dL. In the data set on Obese Zucker rats [4], this compound gave an IL-6 of 94.13 ± 2.47 pg/mL, a TNFα of 33.66 ± 5.27 pg/mL, a cAMP of 29.17 ± 2.00 pmol/mL and an OxyDNA of 49.02 ± 2.31 ng/mL. In the data set with Obese Zucker rats [5], this compound registered a Leptin of 399.55 pg/mL, an RBP-4 of 49236.91 ng/mL, an Adiponectin of 11229.84 ng/mL and a CRP of 654.78 ng/mL. For the same compound, in the data set with Obese Zucker rats [5], the ICAM is given as 20428.47 pg/mL and the MCP-1 worked out at 4549.99 pg/mL. Besides, in the data set on Obese Zucker rats [6], the “RBC Lipid Peroxidase” value is 2.05 nmol/mL, the “Fasting Glucose” value is 527.28 mg/dL, the GSH was determined as 4.84 µmol/g and the HbA1c was found to be 15.54%. In the data set with Obese Zucker rats [6], the “Vitamin C” value was determined as 0.15 mg %.
Turning to Cr-nicotinic acid-glycine, the “glucose tolerance factor activity” value in the data set on yeast is recorded as “significant activity”.
